Experimental data as given in PubChem BioAssay AID248 (DTP/NCI, 2004).
“And” between values parts separate entries of the source, which are not always exact repeats. Equal entries are not always repeated. Inconclusive results and toxic doses are left out. Cut-off read from the data, not from the text of the source: active = T/C of 150% or more; inactive = T/C below 125%.

Tested on: L1210 leukemia ip in BDF1 mice, survival T/C
Assay: NCI In Vivo Anticancer Drug Screen. Data for tumor model L1210 Leukemia (intraperitoneal) in B6D2F1 (BDF1) mice
Details: endpoint: mean survival time, higher = longer survival
Outline: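 Transplanted-tumor mice were given test agent; controls received vehicle only. Survival readings from the two groups were divided (treated over control).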

[1] = dose: 100.0 mg/kg/injection, schedule: Q01DX009 (ip), vehicle: Klucel (hydroxypropylcellulose) (HPC)
[2] = dose: 100.0 mg/kg/injection, schedule: Q04DX003 (ip), vehicle: Klucel (hydroxypropylcellulose) (HPC)
[3] = dose: 200.0 mg/kg/injection, schedule: Q01DX009 (ip), vehicle: Klucel (hydroxypropylcellulose) (HPC)
[4] = dose: 200.0 mg/kg/injection, schedule: Q04DX003 (ip), vehicle: Klucel (hydroxypropylcellulose) (HPC)
[5] = dose: 400.0 mg/kg/injection, schedule: Q01DX009 (ip), vehicle: Klucel (hydroxypropylcellulose) (HPC)
[6] = dose: 400.0 mg/kg/injection, schedule: Q04DX003 (ip), vehicle: Klucel (hydroxypropylcellulose) (HPC)
[7] = dose: 100.0 mg/kg/injection, schedule: Q01DX009 (ip), vehicle: saline with Tween-80
[8] = dose: 200.0 mg/kg/injection, schedule: Q01DX009 (ip), vehicle: saline with Tween-80
[9] = dose: 400.0 mg/kg/injection, schedule: Q01DX009 (ip), vehicle: saline with Tween-80
[10] = dose: 100.0 mg/kg/injection, schedule: Q01DX001 (ip), vehicle: Klucel (hydroxypropylcellulose) (HPC)
[11] = dose: 100.0 mg/kg/injection, schedule: Q04DX002 (ip), vehicle: Klucel (hydroxypropylcellulose) (HPC)
[12] = dose: 200.0 mg/kg/injection, schedule: Q01DX001 (ip), vehicle: Klucel (hydroxypropylcellulose) (HPC)
[13] = dose: 400.0 mg/kg/injection, schedule: Q01DX001 (ip), vehicle: Klucel (hydroxypropylcellulose) (HPC)
[14] = dose: 50.0 mg/kg/injection, schedule: Q01DX009 (ip), vehicle: Klucel (hydroxypropylcellulose) (HPC)

Measured: T/C

Cc1cc2nc3c(=O)[nH]c(=O)nc-3n(CC(O)C(O)C(O)C(O)CO)c2cc1C (configuration not stated)
inactive: dose: 14.12 mg/kg/injection, schedule: Q01DX Z (ip), vehicle: carboxymethylcellulose (CMC) 91 % of control | dose: 25.0 mg/kg/injection, schedule: Q01DX015 (ip), vehicle: saline 100 % of control | dose: 28.25 mg/kg/injection, schedule: Q01DX Z (ip), vehicle: carboxymethylcellulose (CMC) 93 % of control | dose: 50.0 mg/kg/injection, schedule: Q01DX015 (ip), vehicle: saline 96 % of control | dose: 56.5 mg/kg/injection, schedule: Q01DX Z (ip), vehicle: carboxymethylcellulose (CMC) 90 % of control | dose: 100.0 mg/kg/injection, schedule: Q01DX015 (ip), vehicle: saline 96 % of control | dose: 100.0 mg/kg/injection, schedule: Q01DX Z (ip), vehicle: carboxymethylcellulose (CMC) 97 % of control | dose: 113.0 mg/kg/injection, schedule: Q01DX Z (ip), vehicle: carboxymethylcellulose (CMC) 89 % of control | dose: 200.0 mg/kg/injection, schedule: Q01DX015 (ip), vehicle: saline 97 % of control and 98 % of control | dose: 200.0 mg/kg/injection, schedule: Q01DX Z (ip), vehicle: carboxymethylcellulose (CMC) 97 % of control | dose: 400.0 mg/kg/injection, schedule: Q01DX001 (ip), vehicle: acetone 103 % of control | dose: 400.0 mg/kg/injection, schedule: Q01DX015 (ip), vehicle: saline 92 % of control | dose: 400.0 mg/kg/injection, schedule: Q01DX Z (ip), vehicle: carboxymethylcellulose (CMC) 94 % of control | dose: 800.0 mg/kg/injection, schedule: Q01DX001 (ip), vehicle: acetone 95 % of control | dose: 800.0 mg/kg/injection, schedule: Q01DX Z (ip), vehicle: carboxymethylcellulose (CMC) 90 % of control

CCN(CC)c1cc(Cl)c(C=O)cc1Br
inactive: [1] 98 % of control | [2] 105 % of control | [3] 100 % of control | [4] 98 % of control | [5] 100 % of control | [6] 104 % of control

c1ccc(-c2nc3ccccc3o2)cc1
inactive: [1] 92 % of control | [2] 92 % of control | [3] 97 % of control | [4] 95 % of control | [5] 92 % of control | [6] 103 % of control

O=C(O)[C@@H]1C[C@H]1c1ccccc1
inactive: dose: 25.0 mg/kg/injection, schedule: Q04DX002 (ip), vehicle: saline + alcohol 100 % of control | dose: 50.0 mg/kg/injection, schedule: Q04DX002 (ip), vehicle: saline + alcohol 102 % of control | [7] 89 % of control | dose: 100.0 mg/kg/injection, schedule: Q04DX002 (ip), vehicle: saline + alcohol 109 % of control | dose: 100.0 mg/kg/injection, schedule: Q04DX002 (ip), vehicle: saline with Tween-80 114 % of control | [8] 87 % of control | [9] 92 % of control

COc1ccc(C(=O)N=C(c2ccccc2)c2ccccc2)cc1
inactive: [7] 95 % of control | [2] 92 % of control | [8] 98 % of control | [4] 97 % of control | [9] 93 % of control | [6] 95 % of control

C=C(C)COC(=O)Nc1cccc(O)c1
inactive: dose: 100.0 mg/kg/injection, schedule: Q01DX001 (ip), vehicle: saline + alcohol 96 % of control | dose: 200.0 mg/kg/injection, schedule: Q01DX001 (ip), vehicle: saline + alcohol 96 % of control

CCOC(=O)C(c1ccccc1)c1ccccc1
inactive: dose: 100.0 mg/kg/injection, schedule: Q01DX009 (ip), vehicle: other 102 % of control | dose: 200.0 mg/kg/injection, schedule: Q01DX009 (ip), vehicle: other 94 % of control | dose: 400.0 mg/kg/injection, schedule: Q01DX009 (ip), vehicle: other 93 % of control

CCCCCCCCCC(=O)NC(=S)Nc1ccc(Br)cc1
inactive: [10] 93 % of control | [1] 93 % of control and 98 % of control | [11] 98 % of control and 91 % of control | [2] 92 % of control | [12] 91 % of control | [3] 91 % of control | dose: 200.0 mg/kg/injection, schedule: Q04DX002 (ip), vehicle: Klucel (hydroxypropylcellulose) (HPC) 96 % of control and 88 % of control | [4] 94 % of control | [13] 94 % of control | dose: 400.0 mg/kg/injection, schedule: Q04DX002 (ip), vehicle: Klucel (hydroxypropylcellulose) (HPC) 96 % of control and 88 % of control | [6] 102 % of control

CCCN1CC(Br)C(=O)NC1=O (configuration not stated)
inactive: dose: 100.0 mg/kg/injection, schedule: Q01DX Z (ip), vehicle: methylcellulose (MC) 90 % of control

CC(=O)Nc1nccs1
inactive: [14] 94 % of control | [1] 97 % of control | [2] 97 % of control | [4] 97 % of control

Cc1ccc(C)c(NC(=O)c2ccccc2C(=O)O)c1
inactive: [1] 102 % of control | [2] 101 % of control | [3] 104 % of control | [4] 102 % of control | [5] 93 % of control | [6] 98 % of control

CN(C)c1ccc(-c2cccc[n+]2C)cc1
inactive: dose: 1.56 mg/kg/injection, schedule: Q01DX009 (ip), vehicle: saline 104 % of control | dose: 3.13 mg/kg/injection, schedule: Q01DX009 (ip), vehicle: saline 103 % of control | dose: 6.25 mg/kg/injection, schedule: Q01DX009 (ip), vehicle: saline 104 % of control

CCCOC(=O)Nc1cccc2ccccc12
inactive: dose: 12.5 mg/kg/injection, schedule: Q04DX002 (ip), vehicle: Klucel (hydroxypropylcellulose) (HPC) 101 % of control | dose: 25.0 mg/kg/injection, schedule: Q04DX002 (ip), vehicle: Klucel (hydroxypropylcellulose) (HPC) 86 % of control | dose: 50.0 mg/kg/injection, schedule: Q04DX002 (ip), vehicle: Klucel (hydroxypropylcellulose) (HPC) 96 % of control | [11] 101 % of control

Cc1cc2c(cc1C)NC(C)CC(=O)N2 (configuration not stated)
inactive: dose: 25.0 mg/kg/injection, schedule: Q01DX009 (ip), vehicle: Klucel (hydroxypropylcellulose) (HPC) 109 % of control | [14] 98 % of control | [1] 104 % of control | dose: 100.0 mg/kg/injection, schedule: Q01DX009 (ip), vehicle: saline 111 % of control | dose: 100.0 mg/kg/injection, schedule: Q04DX003 (ip), vehicle: saline 96 % of control | dose: 133.0 mg/kg/injection, schedule: Q01DX009 (ip), vehicle: Klucel (hydroxypropylcellulose) (HPC) 99 % of control | [3] 94 % of control and 124 % of control | dose: 200.0 mg/kg/injection, schedule: Q04DX003 (ip), vehicle: saline 108 % of control | dose: 400.0 mg/kg/injection, schedule: Q04DX003 (ip), vehicle: saline 105 % of control

N#Cc1ccc(O)c(-c2ccccn2)c1
inactive: [2] 94 % of control | [4] 93 % of control | [6] 94 % of control

Nc1ccc2c(c1)Cc1cc(N)c(Br)cc1-2
inactive: dose: 100.0 mg/kg/injection, schedule: Q01DX001 (ip), vehicle: carboxymethylcellulose (CMC) 105 % of control | dose: 200.0 mg/kg/injection, schedule: Q01DX001 (ip), vehicle: carboxymethylcellulose (CMC) 109 % of control | dose: 400.0 mg/kg/injection, schedule: Q01DX001 (ip), vehicle: carboxymethylcellulose (CMC) 94 % of control

C/C(=N\N1CCCCC1)c1ccc(NC(=O)C(Cl)Cl)cc1
inactive: [7] 106 % of control | [8] 97 % of control | [9] 89 % of control

COC(OC)c1[nH]c(=S)[nH]c(=O)c1Cc1cccc2ccccc12
inactive: [10] 105 % of control | [7] 96 % of control | dose: 100.0 mg/kg/injection, schedule: Q04DX003 (ip), vehicle: saline with Tween-80 100 % of control | [12] 105 % of control | [8] 89 % of control | dose: 200.0 mg/kg/injection, schedule: Q04DX003 (ip), vehicle: saline with Tween-80 100 % of control | [13] 96 % of control | [9] 93 % of control | dose: 400.0 mg/kg/injection, schedule: Q04DX003 (ip), vehicle: saline with Tween-80 102 % of control

COc1nc(=O)n(C2CCCO2)cc1I (configuration not stated)
inactive: dose: 50.0 mg/kg/injection, schedule: Q01DX001 (ip), vehicle: saline 95 % of control | dose: 100.0 mg/kg/injection, schedule: Q01DX001 (ip), vehicle: saline 95 % of control | dose: 200.0 mg/kg/injection, schedule: Q01DX001 (ip), vehicle: saline 90 % of control

Nc1ncnc(N)c1NC(=O)c1ccc([N+](=O)[O-])cc1
inactive: dose: 25.0 mg/kg/injection, schedule: Q01DX001 (ip), vehicle: Klucel (hydroxypropylcellulose) (HPC) 93 % of control | dose: 50.0 mg/kg/injection, schedule: Q01DX001 (ip), vehicle: Klucel (hydroxypropylcellulose) (HPC) 89 % of control | [10] 102 % of control
